Patent publication US10047105B2, “Gyrase inhibitors” (Merck Sharp & Dohme Corp., priority 2009, dated 2018)
Values after ≈ are worked out from the molar mass of the structure shown.

Assays:
Type in all cases: cell-based
[1] = system: S. pneumoniae ATCC 51916; assay: MIC, S. pneumoniae
[2] = system: S. aureus ATCC 13709; assay: MIC, antibacterial potency, S. aureus
[3] = system: E. coli 8 ATCC 25922; assay: MIC, E. coli 8 (wt); conditions: E. coli 8 (EC8)
[4] = S. pneumoniae (Spn52), in µg/mL

Row | Structure (SMILES) | MIC Spn52 [1, 4] | MIC, SA ([2]; S. aureus (SA), in µg/mL) | MIC EC8 [3] | MIC Spn52 ([1]; S. pneumoniae) | MIC, SA ([2]; S. aureus)
1 | CCc1[nH]c2nc(Sc3ccc4[nH]nnc4c3)nc(N3CC[C@@H](N)C3)c2c1Cl [701,090] | 8 | 8 | > 64 µg/mL | – | –
2 | NC1CN(c2nc(Sc3cnc4cccnc4c3)nc3[nH]c(C4CC4)c(Cl)c23)C1 [701,065] | 4 | 8 | 16 µg/mL (≈ 37.7 µM) | – | –
3 | CCc1[nH]c2nc(Oc3cccc(C#N)c3)nc(C(C)N3CCC(N)C3)c2c1Cl (stereo not shown) [700,950] | >64 | >64 | > 64 µg/mL | – | –
4 | CCc1[nH]c2nc(Sc3ccc4c(N5CC(CN)C5)nc(C)nc4c3)nc(N3CC[C@@H](N)C3)c2c1Cl [700,922] | 64 | 32 | 4 µg/mL (≈ 7.63 µM) | – | –
5 | CCc1[nH]c2nc(Oc3cnc4c(c3)ncn4C)nc(N3CC[C@@H](NC(C)=O)C3)c2c1Cl [701,034] | 4 | 4 | > 64 µg/mL | – | –
6 | CCc1[nH]c2nc(Sc3cnc4ccc[n+]([O-])c4c3)nc(N3CC(N)C3)c2c1Cl [701,036] | 2 | <=0.5 | 16 µg/mL (≈ 37.4 µM) | – | –
7 | CCc1[nH]c2nc(Sc3cnc4c(=N)n(CCCN(C)C)c(C)nc4c3)nc(N3CC[C@@H](N)C3)c2c1Cl [700,923] | 8 | 16 | 64 µg/mL (≈ 118 µM) | – | –
8 | CCc1[nH]c2nc(Sc3cnc4cccnc4c3)nc(N3CCNCCNCC3)c2c1Cl [701,003] | 32 | >64 | > 64 µg/mL | – | –
9 | CCc1[nH]c2nc(Oc3cnc4c(c3)ncn4C)nc(Oc3cncc(C#N)c3)c2c1Br [700,996] | <=0.5 | <=0.5 | > 64 µg/mL | – | –
10 | CCc1[nH]c2nc(Oc3cncc(C#N)c3)nc(Cc3cccc(C#N)c3)c2c1Cl [700,927] | 1 | <=0.5 | > 64 µg/mL | – | –
11 | CCc1[nH]c2nc(Sc3cccnc3)nc(N3C[C@@H]4[C@@H](N)[C@@H]4C3)c2c1C(F)F [701,162] | 32 | 16 | > 32 µg/mL | – | –
12 | N[C@@H]1CCN(c2nc(Sc3cnc4cccnc4c3)nc3[nH]c(CC(F)(F)F)c(Cl)c23)C1 [701,209] | 4 | 2 | > 64 µg/mL | – | –
13 | CCc1[nH]c2nc(Sc3ccc4c(OC)cc[n+]([O-])c4c3)nc(N3CC[C@@H](N)C3)c2c1Cl [701,040] | 4 | <=0.5 | 32 µg/mL (≈ 67.9 µM) | – | –
14 | CCc1[nH]c2nc(Oc3cnc(O)nc3)nc(Oc3cnc(O)nc3)c2c1Br [701,105] | 2 | 1 | > 64 µg/mL | – | –
15 | CCc1[nH]c2nc(Sc3cnc4[nH][nH]c(=O)c4c3)nc(N3CC[C@@H](N)C3)c2c1Cl [701,094] | >64 | >64 | > 64 µg/mL | – | –
16 | CCc1[nH]c2nc(Sc3cnc4nccnc4c3)nc(N3CCC(CC)(NC(=O)C(F)(F)F)C3)c2c1Cl (stereo not shown) [701,120] | 32 | 4 | > 64 µg/mL | – | –
17 | CCc1[nH]c2nc(Sc3cnc4c(c3)c(=O)ncn4C)nc(N3CC4C(N)C4C3)c2c1Cl (stereo not shown) [701,270] | 4 | <=0.5 | 32 µg/mL (≈ 68.2 µM) | – | –
18 | CCc1[nH]c2nc(Sc3ccc4cc5c([n+]([O-])c4c3)CCNC5)nc(N3CC4C(C3)C4(N)C(N)=O)c2c1Cl (stereo not shown) [700,971] | 2 | <=0.5 | > 64 µg/mL | – | –
19 | N[C@@H]1CCN(c2nc(Sc3cnc4cccnc4c3)nc3[nH]c(C4CC4)c(Cl)c23)C1 [701,064] | 4 | 8 | 4 µg/mL (≈ 9.13 µM) | – | –
20 | CCc1[nH]c2nc(Oc3ccc4nccnc4c3)nc(N(C)C)c2c1Cl [700,962] | 2 | <=0.5 | > 8 µg/mL | – | –
21 | CCc1[nH]c2nc(Oc3ccc4nccnc4c3)nc(N3CC(N)C3)c2c1Cl [700,963] | 4 | 1 | > 64 µg/mL | – | –
22 | CCc1[nH]c2nc(Oc3cnc4c(c3)ncn4C)nc(N3CC[C@@H](NC(C)=O)C3)c2c1Br [701,032] | 8 | 8 | > 64 µg/mL | – | –
23 | CCc1[nH]c2nc(Sc3cnc4nccnc4c3)nc(N3CC(N4CCN(C(=O)OC(C)(C)C)CC4)C3)c2c1Cl.O=C(O)C(F)(F)F.O=C(O)C(F)(F)F [700,671] | – | – | – | 32 µg/mL | 8 µg/mL
24 | CCc1[nH]c2nc(Sc3nc(C(=O)O)cs3)nc(NCCCNS(C)(=O)=O)c2c1Cl [700,342] | – | – | – | > 64 µg/mL | > 64 µg/mL

Row | Structure (SMILES) | MIC Spn52 [1, 4] | MIC, SA ([2]; S. aureus (SA), in µg/mL) | MIC EC8 [3] | MIC Spn52 ([1]; S. pneumoniae) | MIC, SA ([2]; S. aureus)
25 | CCc1[nH]c2nc(Nc3cnc4c(c3)nnn4CC3CC3)nc(N3CC(S(=O)(=O)CC4CC4)C3)c2c1Br.O=C(O)C(F)(F)F [700,496] | – | – | – | > 64 µg/mL | > 64 µg/mL
26 | CCc1[nH]c2nc(Sc3cnc4nccnc4c3)nc(N3CCOCC3)c2c1Cl [700,424] | – | – | – | 1 µg/mL (≈ 2.34 µM) | ≤ 0.5 µg/mL
27 | CCc1[nH]c2nc(Sc3ccc4nnc(C(=O)NCC5CCNCC5)nc4c3)nc(N3CC[C@@H](N)C3)c2c1Cl [700,845] | >64 | >64 | – | – | –
28 | CCc1[nH]c2nc(Sc3ccc4ccc(C(=O)O)nc4c3)nc(N3CC[C@@H](N)C3)c2c1Cl [700,719] | – | – | – | > 64 µg/mL | 2 µg/mL (≈ 4.26 µM)
29 | CCc1[nH]c2nc(Sc3cnc4nccnc4c3)nc(N3CC[C@H](O)[C@H]3CO)c2c1Cl [700,657] | – | – | – | 2 µg/mL (≈ 4.37 µM) | 8 µg/mL (≈ 17.5 µM)
30 | CCc1[nH]c2nc(Sc3nc(C(=O)O)cs3)nc(N3CCNCC3)c2c1Cl.O=C(O)C(F)(F)F [700,398] | – | – | – | > 64 µg/mL | > 64 µg/mL
31 | CCc1[nH]c2nc(Sc3cc(F)cc(F)c3C#N)nc(N3CC[C@@H](N)C3)c2c1Cl [700,848] | 64 | 64 | – | – | –
32 | CCc1[nH]c2nc(Sc3cnc4nccnc4c3)nc(N3CCC(c4cccnc4)C3)c2c1Cl (stereo not shown) [700,851] | 4 | <=0.5 | – | – | –
33 | CCc1[nH]c2nc(Sc3cnc4cccnc4c3)nc(N3CCC(N)(C(=O)N[C@H](CO)C(=O)O)C3)c2c1Cl (stereo partly shown) [700,891] | >64 | >64 | – | – | –
34 | CCc1[nH]c2nc(Sc3cnc4nccnc4c3)nc(N3CC4CNCC4C3)c2c1Cl.O=C(O)C(F)(F)F (stereo not shown) [700,565] | – | – | – | 4 µg/mL | 2 µg/mL
35 | CCc1[nH]c2nc(Oc3cncnc3)nc(Oc3cncnc3)c2c1Cl.O=C(O)C(F)(F)F [700,466] | – | – | – | 16 µg/mL | 4 µg/mL
36 | CCc1[nH]c2nc(Sc3cccc(CC(=O)OC)c3)nc(Cl)c2c1Br [700,296] | – | – | – | 64 µg/mL (≈ 145 µM) | > 64 µg/mL
37 | CCOc1nc(Oc2ccc3[nH]ccc3c2)nc2[nH]c(CC)c(Cl)c12.O=C(O)C(F)(F)F [700,699] | – | – | – | 64 µg/mL | 2 µg/mL
38 | CCc1[nH]c2nc(Oc3ccc(OC)nc3)nc(Oc3ccc(OC)nc3)c2c1Br.O=C(O)C(F)(F)F [700,591] | – | – | – | > 64 µg/mL | 2 µg/mL
39 | CCc1[nH]c2nc(Sc3cccc(NC(=O)OC)c3)nc(NC[C@H](C)O)c2c1Br [700,295] | – | – | – | 32 µg/mL (≈ 66.6 µM) | > 64 µg/mL
40 | CCc1[nH]c2nc(Sc3cnc4c(c3)ncc(=O)n4C3CCNCC3)nc(N3CC[C@@H](N)C3)c2c1Cl [700,799] | >64 | >64 | – | – | –
41 | CCc1[nH]c2nc(Sc3cccnc3)nc(NCc3ccccc3OC)c2c1Br.O=C(O)C(F)(F)F [700,271] | – | – | – | > 64 µg/mL | > 64 µg/mL
42 | CCc1[nH]c2nc(Oc3cncc(C#N)c3)nc(Oc3cncc(C#N)c3)c2c1Br.O=C(O)C(F)(F)F [700,724] | – | – | – | ≤ 0.5 µg/mL | ≤ 0.5 µg/mL
43 | CCc1[nH]c2nc(Sc3cnc4nccnc4c3)nc(N3CC4CCCNC4C3)c2c1Cl.O=C(O)C(F)(F)F (stereo not shown) [700,721] | – | – | – | 32 µg/mL | 32 µg/mL
44 | CCOc1nc(Oc2ccc3nc(C)ccc3c2)nc2[nH]c(CC)c(Cl)c12.O=C(O)C(F)(F)F [700,690] | – | – | – | 8 µg/mL | > 64 µg/mL
45 | CCc1[nH]c2nc(Sc3cnc4cccnc4c3)nc(N3C[C@H](C4CCCCC4)[C@@H](N)C3)c2c1Cl [700,890] | 4 | 2 | – | – | –
46 | CCc1[nH]c2nc(Sc3cnc4nccnc4c3)nc(NCCN(C)C)c2c1Cl.O=C(O)C(F)(F)F [700,513] | – | – | – | 32 µg/mL | > 64 µg/mL
47 | CCc1[nH]c2nc(Sc3cc(=O)n(C)c(=O)[nH]3)nc(N3CC(O)C3)c2c1Br [700,433] | – | – | – | 1 µg/mL (≈ 2.21 µM) | ≤ 0.5 µg/mL
48 | CCc1[nH]c2nc(Nc3cnc4c(c3)nnn4C(C)C)nc(N3CC(NC(=O)O)C3)c2c1Cl.O=C(O)C(F)(F)F [700,526] | – | – | – | > 64 µg/mL | 8 µg/mL
